# Measured values reported in ChEMBL document CHEMBL3399961, “Sulfamic acid promoted one-pot three-component synthesis and cytotoxic evaluation of spirooxindoles” (Bioorg Med Chem Lett, 2015).
# pIC50: −log10 of the molar value.
# Experiments:
# Format in all cases: functional, cell-based
# MDA-MB-231 = test: Cytotoxicity against human MDA-MB-231 cells after 48 hrs by MTT assay; details: MDA-MB-231, 48 h
# A549 = test: Cytotoxicity against human A549 cells after 48 hrs by MTT assay; details: A549, 48 h
# DU-145 = test: Cytotoxicity against human DU145 cells after 48 hrs by MTT assay; details: DU-145, 48 h
smiles,measurement,setting,value
O=C1N(Cc2ccc3c(c2)OCO3)c2ccccc2C12c1c(-c3ccccc3)n[nH]c1Nc1[nH]c(=O)[nH]c(=O)c12 (stereo not given),pIC50,MDA-MB-231,4.70
same,pIC50,A549,4.76
same,pIC50,DU-145,4.71
O=C1N(Cc2ccc3c(c2)OCO3)c2ccc(Cl)cc2C12c1c(-c3ccccc3)n[nH]c1Nc1[nH]c(=O)[nH]c(=O)c12 (stereo not given),pIC50,MDA-MB-231,4.80
same,pIC50,A549,4.58
same,pIC50,DU-145,4.61
O=C1N(Cc2ccc3c(c2)OCO3)c2ccc(Br)cc2C12c1c(-c3ccccc3)n[nH]c1Nc1[nH]c(=O)[nH]c(=O)c12 (stereo not given),pIC50,MDA-MB-231,4.87
same,pIC50,A549,4.83
same,pIC50,DU-145,4.78
COc1cc(CN2C(=O)C3(c4cc(Cl)ccc42)c2c(-c4ccccc4)n[nH]c2Nc2[nH]c(=O)[nH]c(=O)c23)cc(OC)c1OC (stereo not given),pIC50,MDA-MB-231,4.40
same,pIC50,A549,4.50
same,pIC50,DU-145,4.49
COc1cc(CN2C(=O)C3(C4=C(COC4=O)Nc4[nH]nc(-c5ccccc5)c43)c3cc(Cl)ccc32)cc(OC)c1OC (stereo not given),pIC50,MDA-MB-231,4.71
same,pIC50,A549,4.70
same,pIC50,DU-145,4.69
O=C1Nc2ccccc2C12c1c(-c3ccccc3)n[nH]c1Nc1[nH]c(=O)[nH]c(=O)c12 (stereo not given),pIC50,MDA-MB-231,4.45
same,pIC50,A549,4.75
same,pIC50,DU-145,4.74
O=C1Nc2ccc(F)cc2C12c1c(-c3ccccc3)n[nH]c1Nc1[nH]c(=O)[nH]c(=O)c12 (stereo not given),pIC50,MDA-MB-231,4.12
same,pIC50,A549,4.60
same,pIC50,DU-145,4.37
O=C1Nc2c(F)cccc2C12c1c(-c3ccccc3)n[nH]c1Nc1[nH]c(=O)[nH]c(=O)c12 (stereo not given),pIC50,MDA-MB-231,4.17
same,pIC50,A549,4.74
same,pIC50,DU-145,4.69
O=C1Nc2ccc(Cl)cc2C12c1c(-c3ccccc3)n[nH]c1Nc1[nH]c(=O)[nH]c(=O)c12 (stereo not given),pIC50,MDA-MB-231,4.17
same,pIC50,A549,5.10
same,pIC50,DU-145,4.80
O=C1Nc2ccc(Br)cc2C12c1c(-c3ccccc3)n[nH]c1Nc1[nH]c(=O)[nH]c(=O)c12 (stereo not given),pIC50,MDA-MB-231,4.32
same,pIC50,A549,4.67
same,pIC50,DU-145,4.52
O=C1Nc2ccc(I)cc2C12c1c(-c3ccccc3)n[nH]c1Nc1[nH]c(=O)[nH]c(=O)c12 (stereo not given),pIC50,MDA-MB-231,4.34
same,pIC50,A549,4.90
same,pIC50,DU-145,4.98
Cc1ccc2c(c1)C1(C(=O)N2)c2c(-c3ccccc3)n[nH]c2Nc2[nH]c(=O)[nH]c(=O)c21 (stereo not given),pIC50,MDA-MB-231,4.20
same,pIC50,A549,5.11
same,pIC50,DU-145,5.02
COc1ccc2c(c1)C1(C(=O)N2)c2c(-c3ccccc3)n[nH]c2Nc2[nH]c(=O)[nH]c(=O)c21 (stereo not given),pIC50,MDA-MB-231,4.54
same,pIC50,A549,4.62
same,pIC50,DU-145,4.64
O=C1Nc2ccc([N+](=O)[O-])cc2C12c1c(-c3ccccc3)n[nH]c1Nc1[nH]c(=O)[nH]c(=O)c12 (stereo not given),pIC50,MDA-MB-231,4.20
same,pIC50,A549,5.11
same,pIC50,DU-145,5.02
O=C1N(Cc2ccccc2)c2ccccc2C12c1c(-c3ccccc3)n[nH]c1Nc1[nH]c(=O)[nH]c(=O)c12 (stereo not given),pIC50,MDA-MB-231,4.88
same,pIC50,A549,4.44
same,pIC50,DU-145,4.74
O=C1N(Cc2ccccc2)c2ccc(Cl)cc2C12c1c(-c3ccccc3)n[nH]c1Nc1[nH]c(=O)[nH]c(=O)c12 (stereo not given),pIC50,MDA-MB-231,4.90
same,pIC50,A549,4.70
same,pIC50,DU-145,4.69
O=C1N(Cc2ccccc2)c2ccc(Br)cc2C12c1c(-c3ccccc3)n[nH]c1Nc1[nH]c(=O)[nH]c(=O)c12 (stereo not given),pIC50,MDA-MB-231,5.20
same,pIC50,A549,4.59
same,pIC50,DU-145,4.63
COc1ccc2c(c1)C1(C(=O)N2Cc2ccccc2)c2c(-c3ccccc3)n[nH]c2Nc2[nH]c(=O)[nH]c(=O)c21 (stereo not given),pIC50,MDA-MB-231,4.84
same,pIC50,A549,4.77
same,pIC50,DU-145,4.66
O=C1OCC2=C1C1(C(=O)Nc3ccccc31)c1c(-c3ccccc3)n[nH]c1N2 (stereo not given),pIC50,MDA-MB-231,4.31
same,pIC50,A549,4.87
same,pIC50,DU-145,4.60
O=C1OCC2=C1C1(C(=O)Nc3ccc(F)cc31)c1c(-c3ccccc3)n[nH]c1N2 (stereo not given),pIC50,MDA-MB-231,4.46
same,pIC50,A549,4.60
same,pIC50,DU-145,4.54
O=C1OCC2=C1C1(C(=O)Nc3c(F)cccc31)c1c(-c3ccccc3)n[nH]c1N2 (stereo not given),pIC50,MDA-MB-231,4.28
same,pIC50,A549,4.43
same,pIC50,DU-145,4.43
O=C1OCC2=C1C1(C(=O)Nc3ccc(Cl)cc31)c1c(-c3ccccc3)n[nH]c1N2 (stereo not given),pIC50,MDA-MB-231,4.26
same,pIC50,A549,4.30
same,pIC50,DU-145,4.38
O=C1OCC2=C1C1(C(=O)Nc3ccc(Br)cc31)c1c(-c3ccccc3)n[nH]c1N2 (stereo not given),pIC50,MDA-MB-231,4.60
same,pIC50,A549,4.50
same,pIC50,DU-145,4.69
O=C1OCC2=C1C1(C(=O)Nc3ccc(I)cc31)c1c(-c3ccccc3)n[nH]c1N2 (stereo not given),pIC50,MDA-MB-231,4.70
same,pIC50,A549,4.48
same,pIC50,DU-145,4.66
Cc1ccc2c(c1)C1(C(=O)N2)C2=C(COC2=O)Nc2[nH]nc(-c3ccccc3)c21 (stereo not given),pIC50,MDA-MB-231,4.21
same,pIC50,A549,4.80
same,pIC50,DU-145,4.89
COc1ccc2c(c1)C1(C(=O)N2)C2=C(COC2=O)Nc2[nH]nc(-c3ccccc3)c21 (stereo not given),pIC50,MDA-MB-231,4.26
same,pIC50,A549,4.30
same,pIC50,DU-145,4.36
O=C1OCC2=C1C1(C(=O)Nc3ccc([N+](=O)[O-])cc31)c1c(-c3ccccc3)n[nH]c1N2 (stereo not given),pIC50,MDA-MB-231,4.30
same,pIC50,A549,4.29
same,pIC50,DU-145,4.41
O=C1OCC2=C1C1(C(=O)N(Cc3ccccc3)c3ccccc31)c1c(-c3ccccc3)n[nH]c1N2 (stereo not given),pIC50,MDA-MB-231,4.50
same,pIC50,A549,4.45
same,pIC50,DU-145,4.80
O=C1OCC2=C1C1(C(=O)N(Cc3ccccc3)c3ccc(Cl)cc31)c1c(-c3ccccc3)n[nH]c1N2 (stereo not given),pIC50,MDA-MB-231,5.41
same,pIC50,A549,4.30
same,pIC50,DU-145,4.45
O=C1OCC2=C1C1(C(=O)N(Cc3ccccc3)c3ccc(Br)cc31)c1c(-c3ccccc3)n[nH]c1N2 (stereo not given),pIC50,MDA-MB-231,4.90
same,pIC50,A549,4.80
same,pIC50,DU-145,5.07
COc1ccc2c(c1)C1(C(=O)N2Cc2ccccc2)C2=C(COC2=O)Nc2[nH]nc(-c3ccccc3)c21 (stereo not given),pIC50,MDA-MB-231,5.29
same,pIC50,A549,4.84
same,pIC50,DU-145,4.82
O=C1OCC2=C1C1(C(=O)N(Cc3ccc4c(c3)OCO4)c3ccccc31)c1c(-c3ccccc3)n[nH]c1N2 (stereo not given),pIC50,MDA-MB-231,4.99
same,pIC50,A549,4.38
same,pIC50,DU-145,4.93
O=C1OCC2=C1C1(C(=O)N(Cc3ccc4c(c3)OCO4)c3ccc(Cl)cc31)c1c(-c3ccccc3)n[nH]c1N2 (stereo not given),pIC50,MDA-MB-231,6.46
same,pIC50,A549,4.70
same,pIC50,DU-145,4.82
O=C1OCC2=C1C1(C(=O)N(Cc3ccc4c(c3)OCO4)c3ccc(Br)cc31)c1c(-c3ccccc3)n[nH]c1N2 (stereo not given),pIC50,MDA-MB-231,5.72
same,pIC50,A549,4.20
same,pIC50,DU-145,4.87
O=c1[nH]cc(F)c(=O)[nH]1 [FLUOROURACIL],pIC50,MDA-MB-231,5.24
same,pIC50,A549,5.12
same,pIC50,DU-145,5.20
